Results from patent publication US10028966B2 (Avalyn Pharma Inc., priority 2014, dated 2018).
≈ marks a conversion by molar mass, not a printed value.

Columns and labels:
[1] = Process temperature development study (60°C dissolution, cooling to 25°C); assay type: physicochemical
Experimental: […]. […] The final volume of each formulation was 5 mL. […] Each sample was mixed thoroughly and agitated overnight at 60° C. Rapid cooling and step-wise cooling from 60° C. to 25° C. was performed. HPLC analysis was performed on samples taken after overnight incubation and after cooling to 25° C. Prior to HPLC analysis, formulations were filtered via syringe through a 0.45 μm PVDF filter.

[2] = in vivo; cited from earlier work
[3] = Modeled human inhaled aerosol pirfenidone pharmacokinetics (FIG. 2, FIG. 5, Table 28)
Text: More specifically, the oral route requires a large oral dose to achieve a relatively small lung tissue Cmax. Delivering a similar Cmax without the large systemic dose provides increased efficacy. However, further escalating this direct lung dose, which results in increased systemic exposure, reduces this effect. […] Specifically, a high lung tissue Cmax is important for lung tissue anti-fibrotic efficacy. However, this positive effect appears dependent upon an associated small plasma AUC; the larger the plasma AUC, the lower the efficacy. […] In practice, the oral route of administration is not capable of meeting this U-shaped-restricted dose response. Safety and tolerability prevent further dose escalation of the 801 mg/dose oral medicine (Esbriet®). […] To illustrate these findings, possible human lung tissue and plasma pharmacokinetics following tidal-breath-inhaled aerosol administration were again modeled (FIG. 5). […] These safety and/or tolerability restrictions may be associated with plasma AUC, plasma Cmax, gastrointestinal exposure or a combination of these events. […] However, this limitation could also be set as the plasma Cmax or a combination of these pharmacokinetic parameters.
Aerosol deliver parameters for the FIGS. 2 and 5 models were based on high-efficiency, mesh-based nebulizer characterization (Table 12). […] Respirable delivered dose (RDD) calculated by the product of fine particle fraction (FPF, %<5 microns) and inhaled mass. […] For this non-limiting example, a FPF of 78% and inhaled mass of 67% was used. Using these numbers, a 90 mg device-loaded dose may produce an RDD of about 47 mg (Table 26 and FIG. 2). […] For this non-limiting example, a FPF of 78% and inhaled mass of 67% was used. Using these numbers, a 230 mg device-loaded dose may produce an RDD of about 120 mg. […] This later dose was modeled to be delivered in 1 minute.
An additional clinical consideration is the rat plasma AUC showing non-efficacy in the bleomycin model. […] Only lower delivered doses show anti-fibrotic effect. Plasma AUCs obtained from higher intratracheal or oral doses appears to have similar non-efficacy or enhanced disease.

2D6 = biological target: T1, 2D6 (Homo sapiens, UniProt P10635); conditions: hepatic microsomes; cited from earlier work
T1 construct: In vitro metabolism studies with hepatic microsomes; from tissue; host or cells: hepatic microsomes

[4] = Co-solvent and surfactant effects on pirfenidone saturation solubility; assay type: physicochemical; conditions: aqueous co-solvent/surfactant solvent system, thermodynamic from solid;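 also: samples equilibrated by overnight agitation at ambient temperature, with solubility taken from the supernatant after undissolved solid was removed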
Experimental: Each sample was agitated at ambient temperature overnight. The samples were visually inspected and appearance recorded. Samples were centrifuged to sediment any un-dissolved material and the supernatant withdrawn via syringe through a 0.22 μm PVDF filter. […] The remaining filtered sample was split into three equal volumes in glass vials and placed at 25° C./60 RH, 40° C./75 RH and refrigeration. Samples are wrapped in aluminum foil to reduce light exposure. After the first night of incubation, samples are briefly visually inspected for any signs of discoloration or precipitate formation.

[5] = 0% EtOH, 8% PG, 0% PS80, 92% phosphate buffer (5 mM), pH 6.6
[6] = 0% EtOH, 8% PG, 0.04% PS80, 92% phosphate buffer (5 mM), pH 6.7
[7] = 4% EtOH, 0% PG, 0.04% PS80, 96% phosphate buffer (5 mM), pH 6.6
[8] = 4% EtOH, 8% PG, 0% PS80, 88% phosphate buffer (5 mM), pH 6.7
[9] = 4% EtOH, 8% PG, 0.04% PS80, 88% phosphate buffer (5 mM), pH 6.7

T1 sequence (P10635 whole entry): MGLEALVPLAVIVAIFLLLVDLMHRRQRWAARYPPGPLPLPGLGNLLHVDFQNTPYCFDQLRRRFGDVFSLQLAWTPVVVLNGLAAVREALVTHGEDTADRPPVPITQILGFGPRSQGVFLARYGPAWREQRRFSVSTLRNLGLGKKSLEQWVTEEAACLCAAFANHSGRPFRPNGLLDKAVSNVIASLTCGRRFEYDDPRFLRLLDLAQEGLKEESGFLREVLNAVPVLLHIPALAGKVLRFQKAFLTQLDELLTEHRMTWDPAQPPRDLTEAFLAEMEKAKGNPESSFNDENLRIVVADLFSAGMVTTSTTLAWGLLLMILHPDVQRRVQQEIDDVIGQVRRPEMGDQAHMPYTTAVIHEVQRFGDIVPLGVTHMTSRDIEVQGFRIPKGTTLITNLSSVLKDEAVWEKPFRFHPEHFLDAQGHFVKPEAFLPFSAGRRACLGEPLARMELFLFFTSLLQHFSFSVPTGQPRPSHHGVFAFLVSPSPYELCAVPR

SMILES: Cc1ccc(=O)n(-c2ccccc2)c1 [pirfenidone, 5-methyl-1-phenyl-2-(1H)-pyridone]
- Observations: dissolution after overnight at 60° C. [1, 5]: Fully dissolved after overnight at
- Observations: time stable at 25° C. before re-crystallization [1, 5]: 60 °C Stable at 25 °C for >4 hours
- Pirfenidone (mg/mL) >60° C., assay content after stepwise cooling to 25° C. [1, 5]: 54.6 mg/mL
- Pirfenidone (mg/mL) >Re-crystal, assay content after stepwise cooling to 25° C. and later re-crystallization [1, 5]: 18.6 mg/mL
- Observations: dissolution after overnight at 60° C. [1, 6]: Fully dissolved after overnight at
- Observations: time stable at 25° C. before re-crystallization [1, 6]: 60 °C Stable at 25 °C for >4 hours
- Pirfenidone (mg/mL) >60° C., assay content after stepwise cooling to 25° C. [1, 6]: 52.8 mg/mL
- Pirfenidone (mg/mL) >Re-crystal, assay content after stepwise cooling to 25° C. and later re-crystallization [1, 6]: 22.3 mg/mL
- Observations: dissolution after overnight at 60° C. [1, 7]: Fully dissolved after overnight at
- Observations: time stable at 25° C. before re-crystallization [1, 7]: 60 °C Stable at 25 °C for >4 hours
- Pirfenidone (mg/mL) >60° C., assay content after stepwise cooling to 25° C. [1, 7]: 50.7 mg/mL
- Pirfenidone (mg/mL) >Re-crystal, assay content after stepwise cooling to 25° C. and later re-crystallization [1, 7]: 22.4 mg/mL
- Observations: dissolution after overnight at 60° C. [1, 8]: Fully dissolved after overnight at
- Observations: time stable at 25° C. before re-crystallization [1, 8]: 60 °C Stable at 25 °C for >4 hours
- Pirfenidone (mg/mL) >60° C., assay content after stepwise cooling to 25° C. [1, 8]: 50.34 mg/mL
- Pirfenidone (mg/mL) >Re-crystal, assay content after stepwise cooling to 25° C. and later re-crystallization [1, 8]: 27.6 mg/mL
- Observations: dissolution after overnight at 60° C. [1, 9]: Fully dissolved after overnight at
- Observations: time stable at 25° C. before re-crystallization [1, 9]: 60 °C Stable at 25 °C for >4 hours
- Pirfenidone (mg/mL) >60° C., assay content after stepwise cooling to 25° C. [1, 9]: 51.8 mg/mL
- Pirfenidone (mg/mL) >Re-crystal, assay content after stepwise cooling to 25° C. and later re-crystallization [1, 9]: 26.8 mg/mL
- behaviour on rapid cooling to 25°C ([1]; after dissolution at 60°C): rapid recrystallization
- full dissolution concentration ([1]; heated to 60°C, 5 mM sodium phosphate pH 6.5 with ethanol, propylene glycol and/or polysorbate 80): ≥ 50 mg/mL
- concentration staying in solution ([1]; slow step-wise cooling 60 to 25°C, for several hours before re-crystallization): about 50 mg/mL
- administered pirfenidone excreted in the urine [2]: about 80%
- lung tissue Cmax compared to 801 mg oral dose ([3]; modeled human, 2.5 mg RDD inhaled over 1 minute): equivalent
- plasma AUC0-18hrs ([3]; modeled human, 29 mg RDD, 3 minute tidal-inhaled nebulized dose): 13400 ng·h/mL
- plasma AUC compared to 801 mg oral pirfenidone dose (with food) ([3]; modeled human, 120 mg RDD inhaled over 5 minutes): equivalent
- human lung tissue Cmax ([3]; modeled, 29 mg RDD, 3 minute tidal-inhaled nebulized dose): 43.2 mcg/gram lung tissue
- contribution to pirfenidone metabolism (2D6): less than 13%
- solubility ([4]; pH 4.4, aqueous with cosolvent or surfactant or cyclodextrin, 4% Gly, 0.04% PS80, 96.0% citrate buffer (10 mM), pH 4.4): 17.6 mg/mL (≈ 95 mM)
- solubility ([4]; pH 4.5, aqueous with cosolvent or surfactant or cyclodextrin, 4% EtOH, 0.04% PS80, 96.0% citrate buffer (10 mM), pH 4.5): 21.9 mg/mL (≈ 118 mM)
- solubility ([4]; pH 4.5, aqueous with cosolvent or surfactant or cyclodextrin, 4% EtOH, 0.1% CPB, 95.9% citrate buffer (10 mM), pH 4.5): 20.4 mg/mL (≈ 110 mM)
- solubility ([4]; pH 4.5, aqueous with cosolvent or surfactant or cyclodextrin, 8% PG, 0.04% PS80, 92.0% citrate buffer (10 mM), pH 4.5): 23.2 mg/mL (≈ 125 mM)
- solubility ([4]; pH 4.5, aqueous with cosolvent or surfactant or cyclodextrin, 8% PG, 0.1% CPB, 91.9% citrate buffer (10 mM), pH 4.5): 21 mg/mL (≈ 113 mM)
- solubility ([4]; pH 4.6, aqueous with cosolvent or surfactant or cyclodextrin, 8% PG, 0.04% PS80, 92.0% water, pH 4.6): 23.4 mg/mL (≈ 126 mM)
- solubility ([4]; pH 4.7, aqueous with cosolvent or surfactant or cyclodextrin, 4% EtOH, 0.04% PS80, 96.0% water, pH 4.7): 22.5 mg/mL (≈ 121 mM)
